Patent publication US20070244079A1, “PREVENTIVE/REMEDY FOR ALLERGIC DISEASES” (Ajinomoto Co., Inc., priority 2004, published 2007)

What was measured:
[1] = system: ovalbumin-induced asthma model mice; assay: Ovalbumin-induced asthma model mice: eosinophil count in BAL Fluid; type: in vivo, Balb/c mice
[2] = system: ovalbumin-induced pulmonary fibrosis model mice; assay: Ovalbumin-induced pulmonary fibrosis model mice: airway resistance (Penh) after methacholine; type: in vivo, Balb/c mice; settings: valine 15 g/L, dexamethasone 10 mg %, inhalation 40 minutes per day, day 21 to day 42, no treatment 4.0
Method: Ovalbumin-induced pulmonary fibrosis model mice were induced by a conventional method using Balb/c mice, and the lung function reduction suppressive effect of coadministration of L-valine (free form) and dexamethasone by inhalation was investigated. 24 hours after antigen exposure on day 42, the pulmonary fibrosis model mice were allowed to inhale methacholine, which is a bronchial constriction inducer, and airway resistance (Penh) was measured using a Buxco whole body plethysmography. Valine (15 g/L) and dexamethasone (10 mg %) were aerosolized with a nebulizer and coadministered by inhalation (40 minutes per day) on consecutive days from day 21 to day 42.

[3] = system: ovalbumin-induced pulmonary fibrosis model mice; assay: Ovalbumin-induced pulmonary fibrosis model mice: hydroxyproline content in lung tissue; type: in vivo, Balb/c mice; settings: valine 15 g/L, dexamethasone 10 mg %, inhalation 40 minutes per day, day 21 to day 42; no treatment 28.7%
Method: Ovalbumin-induced pulmonary fibrosis model mice were induced by a conventional method using Balb/c mice, and the pulmonary fibrosis suppressive effect of coadministration of L-valine (free form) and dexamethasone by inhalation was investigated. 24 hours after antigen exposure on day 42, the lungs were extirpated from the pulmonary fibrosis model mice, and the hydroxyproline content in lung tissue was measured as an index of the degree of fibrosis. Valine (15 g/L) and dexamethasone (10 mg %) were aerosolized with a nebulizer and coadministered by inhalation (40 minutes per day) on consecutive days from day 21 to day 42. The results are expressed as increments (%) of the hydroxyproline content in each test group compared to the hydroxyproline content in the lung tissues from normal mice.

[4] = system: ovalbumin-induced asthma model mice; assay: Airway hypersensitivity test (methacholine, whole body plethysmography) in ovalbumin-induced asthma model mice; type: in vivo, Balb/c mice; settings: 3 mM aqueous solution, free water drinking day 0 to day 21; methacholine inhalation; asthma model mice 6.61
Method: After elapse of 24 hours following a third antigen exposure, the animals were allowed to inhale methacholine, which is an airway constricting substance, and an airway hypersensitivity test of the ovalbumin-induced asthma mice was performed using a whole body plethysmography. As an index of airway resistance, the Penh value was used. In the ovalbumin-induced asthma model mice, the Penh value was 6.61; in the group receiving a 3 mM aqueous solution of valine administered by the free water drinking method from day 0 to day 21, the Penh value decreased to 3.77.

[5] = system: ovalbumin-induced asthma model mice; assay: Cytokine concentrations in BAL Fluid (ELISA) of ovalbumin-induced asthma model mice; type: in vivo, Balb/c mice; settings: 0.6 mM aqueous solution, free water drinking day 0 to day 21
Method: After a 0.6 mM aqueous solution of valine was prepared, it was administered by the free water drinking method from day 0 to day 21. The IFN-γ/IL4 ratio increased from 5.8 for the control group to 8.0 for the valine administration group.

[6] = system: Ovalbumin-immunized Balb/c mice; assay: Cytokine productivity of isolated immune cells (lung macrophages co-cultured with splenocytes) from ovalbumin-immunized mice given valine; type: in vivo; settings: valine 3 mM free water drinking day 0 to day 11, co-cultured with splenocytes 48 hours, ELISA
Method: Ovalbumin-immunized Balb/c mice were given L-valine (free form), and changes in the cytokine productivity of isolated immune cells were examined, whereby the effect on the Th1/Th2 balance in a living organism's immune system was investigated. After a 3 mM aqueous solution of valine was prepared, it was administered by the free water drinking method from day 0 to day 11. […] On day 11, macrophages were isolated from the lungs and cultured in the presence of 1 mg/mL ovalbumin overnight, after which they were further co-cultured with splenocytes isolated from an ovalbumin-immunized mouse for 48 hours. After the cultivation, cytokines in the culture supernatant were measured by an ELISA method. […] With valine administration, an increase in the Th1 cytokine content and a reduction in the Th2 cytokine content were observed.

[7] = system: ovalbumin-induced asthma model mice; assay: Lung tissue pathology (H/E staining), immune cell infiltration in ovalbumin-induced asthma model mice; type: in vivo, Balb/c mice; settings: valine 3 mM or ornithine hydrochloride 15 mM, free water drinking day 0 to day 21
Method: After elapse of 24 hours following a third antigen exposure, the lungs were extirpated from the mice and fixed in 10% formalin buffer solution, paraffin sections were prepared, and H/E staining was performed. […] Note that FIG. 7(a) is a lung tissue image of a normal mouse without asthma induction.

[8] = 0.6 to 15 mM aqueous solutions, free water drinking day 0 to day 21, 1st of 3 values (respectively), control 33
[9] = 0.6 to 15 mM aqueous solutions, free water drinking day 0 to day 21, 2nd of 3 values (respectively), control 33
[10] = 0.6 to 15 mM aqueous solutions, free water drinking day 0 to day 21, 3rd of 3 values (respectively), control 33

N=C(N)NCCC[C@H](N)C(=O)O [arginine, L-arginine]
eosinophil count in the BAL Fluid ([1]; 3 to 45 mM aqueous solutions, free water drinking day 0 to day 21, 1st of 3 values (respectively), control 45): 26000 µL⁻¹
eosinophil count in the BAL Fluid ([1]; 3 to 45 mM aqueous solutions, free water drinking day 0 to day 21, 2nd of 3 values (respectively), control 45): 25000 µL⁻¹
eosinophil count in the BAL Fluid ([1]; 3 to 45 mM aqueous solutions, free water drinking day 0 to day 21, 3rd of 3 values (respectively), control 45): 19000 µL⁻¹

C[C@@H]1C[C@H]2[C@@H]3CCC4=CC(=O)C=C[C@]4(C)[C@@]3(F)[C@@H](O)C[C@]2(C)[C@@]1(O)C(=O)CO [dexamethasone, reference compound]
Penh value (airway resistance) [2]: 4.1
increment of hydroxyproline content in lung tissue compared to normal mice [3]: 15.4%

NCC(=O)O [glycine]
eosinophil count in the BAL Fluid [1, 8]: 32000 µL⁻¹
eosinophil count in the BAL Fluid [1, 9]: 27000 µL⁻¹
eosinophil count in the BAL Fluid [1, 10]: 28000 µL⁻¹

CC[C@H](C)[C@H](N)C(=O)O [isoleucine, L-isoleucine]
eosinophil count in the BAL Fluid ([1]; 0.45 mM aqueous solution, free water drinking day 0 to day 21, control 20): 12000 µL⁻¹

CC(C)C[C@H](N)C(=O)O [leucine, L-leucine]
eosinophil count in the BAL Fluid ([1]; 0.9 mM aqueous solution, free water drinking day 0 to day 21, control 20): 7000 µL⁻¹

N[C@@H](CO)C(=O)O [serine]
eosinophil count in the BAL Fluid [1, 8]: 29000 µL⁻¹
eosinophil count in the BAL Fluid [1, 9]: 24000 µL⁻¹
eosinophil count in the BAL Fluid [1, 10]: 22000 µL⁻¹

CC(C)[C@H](N)C(=O)O [valine, L-valine]
Penh value (index of airway resistance) [4]: 3.77
IL-4 in BAL Fluid ([5]; ELISA, control 69.1): 120.7 pg/mL
IFN-γ in BAL Fluid ([5]; ELISA, control 403.8): 970.4 pg/mL
IFN-γ/IL-4 ratio in BAL Fluid ([5]; control 5.8): 8.0
effect on eosinophil count in the BAL Fluid compared to the control group ([1]; 15 mM, free water drinking started at first suction exposure (day 12)): no significant effect
eosinophil count in the BAL Fluid ([1]; 0.12 to 15 mM aqueous solutions, free water drinking day 0 to day 21, 1st of 4 values (respectively), control 36): 26000 µL⁻¹
eosinophil count in the BAL Fluid ([1]; 0.12 to 15 mM aqueous solutions, free water drinking day 0 to day 21, 2nd of 4 values (respectively), control 36): 23000 µL⁻¹
eosinophil count in the BAL Fluid ([1]; 0.12 to 15 mM aqueous solutions, free water drinking day 0 to day 21, 3rd of 4 values (respectively), control 36): 17000 µL⁻¹
eosinophil count in the BAL Fluid ([1]; 0.12 to 15 mM aqueous solutions, free water drinking day 0 to day 21, 4th of 4 values (respectively), control 36): 28000 µL⁻¹
eosinophil count in the BAL Fluid ([1]; 0.6, 3, or 15 g/L aqueous solution, oral by sonde 100 μL/time/animal twice a day, day 0 to day 21): decreased with dependence on the dose
eosinophil count in the BAL Fluid ([1]; 0.6 or 15 g/L aqueous solution, inhalation (nebulizer) once daily 30 minutes, 5 days/week, day 11 to day 21): decreased with dependence on the dose
IL-4 (pg/mL) Mean, culture supernatant [6]: 9.2 pg/mL
IFN-γ (pg/mL) Mean, culture supernatant ([6]; control 147.0): 341.1 pg/mL
Penh value (airway resistance) [2]: 4.0
lung tissue symptoms (immune cell infiltration, hypertrophy of bronchial epithelial cells, mucosa-producing cells, bronchial stenosis) [7]: all of the above-described symptoms were potently suppressed, and no bronchial stenosis was observed
increment of hydroxyproline content in lung tissue compared to normal mice [3]: 31%
